According to PMC9106929 (Circulation research, 2022):

Target: Piezo1 (Mus musculus, UniProt E2JF22)
Assay: cell-attached single-channel patch clamp, open probability
Assay type: cell-based
Conditions: activator, 5 μM in pipette, -50 mV; effect absent in Piezo1-EC-KO cECs

Sequence of Piezo1 (E2JF22 whole entry): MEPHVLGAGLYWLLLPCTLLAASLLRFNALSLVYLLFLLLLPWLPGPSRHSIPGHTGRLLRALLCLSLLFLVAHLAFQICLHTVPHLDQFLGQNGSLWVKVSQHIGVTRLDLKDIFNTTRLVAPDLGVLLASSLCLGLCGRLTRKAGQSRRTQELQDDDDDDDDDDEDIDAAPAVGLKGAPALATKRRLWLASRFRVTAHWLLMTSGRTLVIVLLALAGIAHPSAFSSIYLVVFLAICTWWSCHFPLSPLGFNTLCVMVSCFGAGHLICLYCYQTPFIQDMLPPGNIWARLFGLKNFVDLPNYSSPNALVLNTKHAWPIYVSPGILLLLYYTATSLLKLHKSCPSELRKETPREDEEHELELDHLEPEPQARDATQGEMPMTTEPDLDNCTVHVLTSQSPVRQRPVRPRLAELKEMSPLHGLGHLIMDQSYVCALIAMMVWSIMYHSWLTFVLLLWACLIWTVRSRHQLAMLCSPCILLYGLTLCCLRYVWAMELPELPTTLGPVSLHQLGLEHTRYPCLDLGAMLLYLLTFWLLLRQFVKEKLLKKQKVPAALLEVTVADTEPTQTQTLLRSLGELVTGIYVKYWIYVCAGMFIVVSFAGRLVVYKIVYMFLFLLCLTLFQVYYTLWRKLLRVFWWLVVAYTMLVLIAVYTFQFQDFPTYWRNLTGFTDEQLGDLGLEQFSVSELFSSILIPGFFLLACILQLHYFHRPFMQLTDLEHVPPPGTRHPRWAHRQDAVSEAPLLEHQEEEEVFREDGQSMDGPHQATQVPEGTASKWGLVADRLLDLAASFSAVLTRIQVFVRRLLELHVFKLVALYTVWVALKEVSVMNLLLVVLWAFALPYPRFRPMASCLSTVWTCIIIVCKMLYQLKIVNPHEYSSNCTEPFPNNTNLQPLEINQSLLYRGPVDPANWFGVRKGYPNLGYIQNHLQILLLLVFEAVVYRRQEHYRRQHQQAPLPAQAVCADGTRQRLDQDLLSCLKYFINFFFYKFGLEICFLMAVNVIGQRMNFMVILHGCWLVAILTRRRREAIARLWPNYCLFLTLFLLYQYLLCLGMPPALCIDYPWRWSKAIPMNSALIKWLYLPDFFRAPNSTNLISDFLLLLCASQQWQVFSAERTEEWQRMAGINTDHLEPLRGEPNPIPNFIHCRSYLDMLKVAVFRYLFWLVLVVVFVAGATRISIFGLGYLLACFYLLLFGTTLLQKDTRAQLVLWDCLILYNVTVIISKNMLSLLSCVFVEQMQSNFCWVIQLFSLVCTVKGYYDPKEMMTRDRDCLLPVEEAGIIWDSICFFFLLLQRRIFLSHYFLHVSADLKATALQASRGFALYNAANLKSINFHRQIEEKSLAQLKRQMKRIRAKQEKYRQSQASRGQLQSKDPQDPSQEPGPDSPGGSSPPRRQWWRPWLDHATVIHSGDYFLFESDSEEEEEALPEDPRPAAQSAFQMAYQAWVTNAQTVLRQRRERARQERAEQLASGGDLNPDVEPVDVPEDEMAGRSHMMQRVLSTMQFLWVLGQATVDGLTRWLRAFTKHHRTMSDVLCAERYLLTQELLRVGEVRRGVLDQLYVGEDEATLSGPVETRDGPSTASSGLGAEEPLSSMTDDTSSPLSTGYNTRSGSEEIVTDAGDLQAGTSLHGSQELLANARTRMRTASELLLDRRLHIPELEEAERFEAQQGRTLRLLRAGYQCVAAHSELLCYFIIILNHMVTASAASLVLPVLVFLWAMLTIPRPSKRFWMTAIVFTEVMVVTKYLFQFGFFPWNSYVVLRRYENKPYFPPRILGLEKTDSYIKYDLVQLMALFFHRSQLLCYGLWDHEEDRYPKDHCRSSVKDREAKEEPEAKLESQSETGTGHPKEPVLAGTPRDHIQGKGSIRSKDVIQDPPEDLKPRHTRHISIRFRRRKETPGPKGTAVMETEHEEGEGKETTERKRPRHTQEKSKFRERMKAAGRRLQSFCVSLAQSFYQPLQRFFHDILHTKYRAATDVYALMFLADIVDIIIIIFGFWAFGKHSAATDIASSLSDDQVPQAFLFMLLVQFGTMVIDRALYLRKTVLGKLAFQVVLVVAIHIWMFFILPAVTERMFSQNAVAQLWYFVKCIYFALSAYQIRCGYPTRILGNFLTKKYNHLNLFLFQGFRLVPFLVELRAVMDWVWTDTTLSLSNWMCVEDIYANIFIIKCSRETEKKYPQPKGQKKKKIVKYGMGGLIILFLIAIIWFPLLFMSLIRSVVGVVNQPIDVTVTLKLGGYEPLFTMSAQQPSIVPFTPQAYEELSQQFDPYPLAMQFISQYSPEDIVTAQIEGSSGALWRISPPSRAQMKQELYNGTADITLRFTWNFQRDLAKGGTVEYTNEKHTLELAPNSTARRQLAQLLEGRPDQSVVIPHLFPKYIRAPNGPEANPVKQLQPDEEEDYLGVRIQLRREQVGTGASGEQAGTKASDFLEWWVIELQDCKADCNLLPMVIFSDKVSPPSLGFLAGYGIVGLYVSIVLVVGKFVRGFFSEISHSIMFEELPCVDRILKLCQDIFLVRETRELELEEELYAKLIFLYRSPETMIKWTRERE

Structure (SMILES): Clc1cccc(Cl)c1CSc1nnc(-c2cnccn2)s1 [Yoda1]
- cell-attached single-channel patch clamp, open probability: increased the open probability of Piezo1-like currents in Piezo1-EC-Ctrl cECs but not in Piezo1-EC-KO
